What was measured:
[1] = target: yeast Hsp90 ATPase (Saccharomyces cerevisiae, UniProt P02829); assay: Purified recombinant yeast Hsp90 ATPase activity; type: biochemical; conditions: in the absence and presence of NQO1
Method: In vitro testing was performed to verify that 19-substitutions prevent GSH conjugation of benzoquinone ansamycins (BQAs). Referring to FIG. 6, reactions were performed in 50 mM potassium phosphate buffer, pH 7.4 containing 50 μM benzoquinone ansamycin in the absence (solid bars) and presence (hatched bars) of 5 mM GSH. At the indicated times (GM series, 15 min; DMAG series, 3 hr; AAG series, 16 hr) the reactions were stopped and BQA concentrations were determined by HPLC. […] The 19-substituted benzoquinone ansamycins were also tested in vitro for inhibition of Hsp90. Referring to FIG. 7, purified recombinant yeast Hsp90 ATPase activity was measured in reactions with 19-substituted BQAs in the absence and presence of NADPH quinone oxidoreductase 1 (NQO1). Results are expressed as percent of DMSO control (mean±SD n=3).
The parent BQA's inhibited purified Hsp90 much more readily in the presence of NQO1 to generate the hydroquinone and this could be blocked by the inhibitor ES936. […] This could be blocked by the NQO1 inhibitor ES936.

[2] = system: SHSY-5Y cells; assay: MTT growth inhibition assay in SHSY-5Y dopaminergic cells; type: cell-based, human; conditions: Homo sapiens, SH-SY5Y, read-out: SHSY-5Y IC50
Method: The 19-substituted benzoquinone ansamycins were also tested in vitro for their ability to reduce the toxicity of BQAs to SH-SY5Y cells a dopaminergic model system of relevance to neurodegenerative disease. Referring to FIG. 9, toxicity of BQAs in SH-SY-5Y cells was measured using trypan blue exclusion (panel A), MTT growth inhibition assay (panel B) and annexin V/PI staining for apoptosis (panel C). Cells in A and C were treated with BQAs (5 μM) for 16 h; cells in B were treated with BQAs for 4 h then allowed to grow in drug-free medium for 72 h. […] The combination of these two properties are likely to be important to the neuroprotective properties of the 19-substituted BQAs.
Growth inhibition assays (MTT) were conducted in human SHSY-5Y cells following a 4 hr treatment with GA or 19Me-GA. Cell were allowed to grow for 72 hrs following drug treatment. The 19-methyl substituted compounds in all series were minimally toxic (see FIG. 12 for data with geldanamycin, MTT assay, results are expressed as the mean±SD, n=3).

[3] = system: MiaPaCa2 human pancreatic cancer cells; assay: MTT growth inhibition in MiaPaCa2 cells; type: cell-based
Method: (§1) The inventors also examined the ability of 19 BQAs to inhibit the growth of human pancreatic cancer cell lines (FIG. 16). For growth inhibition studies (MTT) cells were treated with drugs for 4 hr and then allowed to grow for 72 h. For biomarker studies MiaPaCa2 cells were treated with DMAG analogs (5 μM) for 24 hr. 19 BQAs inhibit the growth of human pancreatic cancer cell lines (FIG. 16A, 16B) and induce biomarkers of Hsp90 inhibition (FIG. 16C) using isogenic Panc-1 (NQO1 null) and Panc-1/C5 (NQO1 expressing) cell lines.

[4] = system: MDA468/NQ16 breast cancer cells; assay: MTT growth inhibition in isogenic MDA468/NQ16 and MDA468 cells; type: cell-based, human; conditions: MDA468/NQ16, 4 hours treatment, 72 h growth, MTT
Method: The 19-substituted benzoquinone ansamycins were also tested in vitro for their ability to inhibit growth similar to DMAG in human breast cancer cells (FIG. 10). MDA468/NQ16 breast cancer cells were treated with 19-substituted DMAG analogs for 4 hours, after which drug-containing media was removed and cells were allowed to grow for an additional 72 h. Cell viability was determined using the MTT assay.
(§2) The ability of 19-substituted BQAs to induce growth inhibition was measured by MTT in isogenic MDA468 (null NQO1) and MDA468/NQ16 (high NQO1) cells. […] Biomarkers of Hsp90 inhibition (Raf-1, AKT degradation and Hsp70 induction) were more pronounced in MDA468/NQ16 cells compared to MDA468 cells following treatment with 19-substituted DMAG analogs.

[5] = system: primary mouse hepatocytes; assay: Hepatotoxicity in primary mouse hepatocytes (MTT); type: cell-based; conditions: 4 hr, confirmed by Trypan Blue and AST leakage
Method: The inventors next tested the effect of 19-substitution of BQAs on hepatotoxicity in isolated hepatocyte systems. Isolated primary mouse hepatocytes were grown on coated 96-well plates and exposed to BQAs for 4 h after which their survival was determined using the MTT assay.
As described above, a major obstacle in the development of BQA as drugs has been their ability to induce hepatotoxicity in preclinical studies. […] Toxicity was measured using MTT assay and confirmed using Trypan Blue and AST leakage. The data shown in FIG. 19 were generated using MTT analysis but similar readouts were obtained using either trypan blue exclusion or leakage of AST from hepatocytes.

[6] = system: BT474 human breast cancer cells; assay: MTT growth inhibition in BT474 cells; type: cell-based; conditions: BT474, 4 hr treatment, MTT 72 h later
Method: (§3) The inventors extended the studies with 19-substituted DMAG analogs to include the Her2^+ human breast cancer cell line BT474 (FIG. 15). Growth inhibition (FIG. 15, left panel) was measured in BT474 cells following treatment with analogs for 4 hr. Growth inhibition (MTT) was performed 72 h following drug treatments. Biomarkers of Hsp90 inhibition, Raf-1, AKT, CDK4 and Her2 degradation as well as Hsp70 induction were measured by immunoblot analysis in human BT474 breast cancer cells following treatment with 19-substituted DMAG analogs (5 μM) for 24 hr ([…], left panel).

[7] = system: Hsp90 (Raf-1, AKT, CDK4, Her2 degradation, Hsp70 induction); assay: Immunoblot biomarkers of Hsp90 inhibition in BT474 cells; type: cell-based, human; conditions: cell line not given
Method: as §3

[8] = system: Hsp90 (Raf-1, AKT degradation and Hsp70 induction); assay: Biomarkers of Hsp90 inhibition in MDA468/NQ16 cells; type: cell-based, human; conditions: MDA468/NQ16 (high NQO1) cells
Method: as §2

[9] = system: human pancreatic cancer cell lines (Panc-1, Panc-1/C5); assay: MTT growth inhibition in human pancreatic cancer cell lines; type: cell-based
Method: as §1

[10] = system: Hsp90; assay: Biomarkers of Hsp90 inhibition in MiaPaCa2 cells; type: cell-based, human; conditions: 5 μM, 24 hr (FIG. 16C)
Method: as §1

[11] = system: p23/Hsp90 interaction; assay: Immunoprecipitation of p23 and Hsp90 in BT474 cells; type: cell-based, human; conditions: 5 μM, 24 hr
Method: Forward and reverse immunoprecipitation studies were performed in BT474 cells treated with DMAG analogs (5 μM) for 24 hr.

[12] = system: cdc37/Hsp90 interaction; assay: Immunoprecipitation of cdc37 with Hsp90 in BT474 and MDA468/NQ16 cells; type: cell-based, human; conditions: 5 μM, 24 hr
Method: Similarly, the association of cdc37 with hsp90 was examined in BT474 cells and MDA468/NQ16 cells by immunoprecipitation following treated with analogs (5 μM) for 24 hr. […] This finding is consistent with X ray data using purified Hsp90 showing that the larger 19-phenyl substituent causes greater conformational change in the Hsp90 structure than smaller 19-substituents (not shown). This also correlates with the differential effect of 19-phenyl and 19-methyl DMAG on clients chaperoned by cdc37 to Hsp90 which include Raf1, Akt, cdc2 and cdk4 (FIGS. 8,9,10).

[13] = target: purified human NQO1 (Homo sapiens, UniProt P15559); assay: Reduction by purified recombinant human NQO1 (HPLC); type: biochemical; conditions: 50 μM, NADH 200 μM, rhNQO1 5 μg, 15 min; blocked by ES936
purified human NQO1, sequence (P15559 whole entry): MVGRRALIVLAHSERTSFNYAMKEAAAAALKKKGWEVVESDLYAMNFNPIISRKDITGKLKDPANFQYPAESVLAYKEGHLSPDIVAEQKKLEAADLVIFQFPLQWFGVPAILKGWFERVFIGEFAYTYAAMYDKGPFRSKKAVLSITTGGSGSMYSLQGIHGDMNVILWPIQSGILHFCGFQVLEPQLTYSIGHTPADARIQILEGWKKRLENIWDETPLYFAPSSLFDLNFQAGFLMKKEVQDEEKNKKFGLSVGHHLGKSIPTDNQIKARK
Method: To confirm bioreduction by NQO1 19Ph-GA was incubated with purified human NQO1 and analyzed by HPLC. […] Reactions with purified rhNQO1 (FIG. 14, panels A and B): 19Ph-GA (50 μM) was incubated with NADH (200 μM) in the absence and presence of purified rhNQO1 (5 μg). After 15 min reactions were stopped and analyzed by HPLC. Panel A; chromatograph overlays of 19Ph-GA, NADH (black) and 19Ph-GA, NADH and NQO1 (red). […] Panel B; chromatograph of 19Ph-GA, NADH, NQO1 and ES936. No 19Ph-GA hydroquinone formation is observed in the presence of the NQO1 inhibitor ES936.

yeast Hsp90 ATPase, sequence (P02829 whole entry): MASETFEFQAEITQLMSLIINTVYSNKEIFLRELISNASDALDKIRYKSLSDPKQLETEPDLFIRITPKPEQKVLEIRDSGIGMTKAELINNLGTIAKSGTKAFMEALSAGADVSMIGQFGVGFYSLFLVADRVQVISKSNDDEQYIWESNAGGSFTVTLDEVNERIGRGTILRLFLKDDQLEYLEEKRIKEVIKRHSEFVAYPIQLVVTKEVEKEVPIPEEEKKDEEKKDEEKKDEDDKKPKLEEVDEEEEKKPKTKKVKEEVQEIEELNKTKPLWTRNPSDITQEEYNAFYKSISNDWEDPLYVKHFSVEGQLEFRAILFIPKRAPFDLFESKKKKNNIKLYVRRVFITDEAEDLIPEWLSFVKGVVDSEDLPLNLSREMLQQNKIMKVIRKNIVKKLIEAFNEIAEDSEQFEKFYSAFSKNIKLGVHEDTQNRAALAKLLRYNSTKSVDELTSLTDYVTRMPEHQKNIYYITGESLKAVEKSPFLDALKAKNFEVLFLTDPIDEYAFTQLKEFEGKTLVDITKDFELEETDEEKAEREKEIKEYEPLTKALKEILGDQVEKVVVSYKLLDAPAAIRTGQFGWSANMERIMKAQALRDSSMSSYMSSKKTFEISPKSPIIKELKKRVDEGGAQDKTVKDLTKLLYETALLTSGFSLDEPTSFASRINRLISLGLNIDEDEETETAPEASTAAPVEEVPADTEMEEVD

Structure (SMILES) | inhibition of Hsp90 ATPase activity [1] | IC50 [2] [µM] | IC50 ([3]; Homo sapiens, MIA PaCa-2, read-out: IC50 MiaPaCa2) [nM] | potency relative to 19Me-DMAG, growth inhibition ([3]; MiaPaCa2 cells) | potency at killing breast cancer cells relative to DMAG [4] | hepatotoxicity [5] | growth inhibition [6] | effects on clients chaperoned by cdc37 to Hsp90 (Raf1, Akt, cdc2, cdk4) [7] | Hsp70 induction [8] | Raf-1 and AKT degradation [8] | sensitivity of Panc-1/C5 (high NQO1) relative to NQO1-null Panc-1 cells ([9]; FIG. 16B) | growth inhibitory activity ([9]; human pancreatic cancer cell lines, 4 hr treatment, 72 h growth, MTT (FIG. 16A)) | induction of biomarkers of Hsp90 inhibition [10] | interaction of p23 and Hsp90 [11] | interaction of cdc37 with Hsp90 [12] | reduction to hydroquinone by NQO1 [13]
C=CCNc1c(O)cc2c(O)c1C[C@@H](C)C[C@H](OC)[C@H](O)[C@@H](C)/C=C(\C)[C@H](OC(N)=O)[C@@H](OC)/C=C\C=C(/C)C(=O)N2 [17AAG hydroquinone] | inhibition of yeast Hsp90 ATPase activity | – | – | – | – | – | – | – | – | – | – | – | – | – | – | –
CO[C@H]1/C=C\C=C(/C)C(=O)NC2=C(c3ccccc3)C(=O)C(NCCN(C)C)=C(C[C@@H](C)C[C@H](OC)[C@H](O)[C@@H](C)/C=C(\C)[C@@H]1OC(N)=O)C2=O [19Ph-DMAG, (4E,6Z,8S,9S,10E,12S,13R,14S,16R)-19-(2-(Dimethylamino)ethylamino)-13-hydroxy-8,14-dimethoxy-4,10,12,16-tetramethyl-3,20,22-trioxo-21-phenyl-2-azabicyclo[16.3.1]docosa-1 (21),4,6,10,18-pentaen-9-yl carbamate] | – | > 20 | 3000 ± 600 | greater than 10 fold | greater potency at killing breast cancer cells than DMAG | no toxicity was observed | induced growth inhibition | marked | equal Hsp70 induction compared to DMAG | more pronounced Raf-1 and AKT degradation | more sensitive | marked growth inhibitory activity | pronounced induction of biomarkers of Hsp90 inhibition | disrupted the interaction of p23 and Hsp90 | disrupted the interaction of cdc37 with Hsp90 | –
COC1=C2C[C@@H](C)C[C@H](OC)[C@H](O)[C@@H](C)/C=C(\C)[C@H](OC(N)=O)[C@@H](OC)/C=C\C=C(/C)C(=O)NC(=C(c3ccccc3)C1=O)C2=O [19Ph-GA, 19-phenylgeldanamycin] | – | > 10 | – | – | – | – | – | – | – | – | – | – | – | – | – | reduced to the more polar 19Ph-GA hydroquinone
